According to patent publication US9688764B2, “Methods of treating breast cancer by administering anti-human prolactin receptor (PRLR) antibodies” (REGENERON PHARMACEUTICALS, INC., priority 2013, dated 2017):
Read-outs that look alike come from different tables or passages of the source. One block for each molecule: values may come before it.

Columns and labels:
KG-1 cells = experiment: Cytotoxicity (cell viability, CCK8) assay; format: cell-based; conditions: Table 28, 3 days
Protocol: (§1) Next, exemplary anti-IL-4R (H4H083P2) and anti-IL-6R (VV6A9-5) antibodies were conjugated to the cytotoxic drug DM1 and their potency in cytotoxicity assays was evaluated. Briefly, HEK293/IL-4R, Ramos or KG-1 cell lines, as well as HEK293 parental cells were seeded in PDL-coated 96-well plates at 1500 to 10,000 cells per well. ADCs or free DM1 (as the methyl disulfide derivative DM1-SMe) were added to the cells at final concentrations ranging from 300 nM to 15 pM and incubated for 3 days. Cells were incubated with CCK8 (Dojindo, Rockville, Md.) for the final 1-3 hours and the absorbance at 450 nm (OD450) was determined on a Flexstation3 (Molecular Devices, Sunnyvale, Calif.). Background OD450 values from digitonin (40 nM) treated cells were subtracted from all wells and viability was expressed as a percentage of the untreated controls. IC50 values were determined from a four-parameter logistic equation over a 10-point response curve (GraphPad Prism).

Ramos cells = experiment: Cytotoxicity (cell viability, CCK8) assay; format: cell-based; conditions: Table 28, 3 days
Protocol: as §1

HEK293/IL-4R cells = experiment: Cytotoxicity (cell viability, CCK8) assay; format: cell-based; conditions: HEK293/hIL4R; Table 28; 3 days
Protocol: as §1

HEK293 parental cells = experiment: Cytotoxicity (cell viability, CCK8) assay; format: cell-based; conditions: Table 28, 3 days
Protocol: as §1

PC3/hPRLR cells = experiment: Cell viability (cell kill) assay; format: cell-based, human; conditions: PC3/PRLR
Outline: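 PC3 and PC3/hPRLR (lipofection-generated, FACS-enriched for PRLR) cells exposed 3 days to anti-PRLR ADCs or free DM1-SMe, 500 nM to 5 pM. Viability by CCK8 OD450, digitonin background subtracted, as % of untreated; IC50 from four-parameter fit of 10-point curves.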

SK-BR-3 cells = experiment: Cell viability (cell kill) assay; format: cell-based; conditions: Table 16
[1] = tested on: HEK293/hPRLR (293/hPRLR) cells; experiment: Cell viability (cell kill) assay; format: cell-based, human; conditions: 293/PRLR; for IC50: read-out: IC50
Source text: (§2) PRLR-overexpressing cells, including HEK293, PC3, MCF7 and NCI-N87, were generated to assess the ability of anti-PRLR conjugated antibodies to reduce cell viability. For comparative purposes, PC3 and T47D cells with overexpressed ErbB2 were also generated, as well as an MCF7 cell line over-expressing both hPRLR and hErbB2. Briefly, Lipofectamine® 2000-mediated transfection methodology was utilized to generate HEK293 cells expressing human PRLR (HEK293/hPRLR) or human ErbB2 (HEK293/hErbB2). Lipofectamine LTX with Plus Reagent was used to generate PC3 cells expressing human PRLR (PC3/hPRLR) or human ErbB2 (PC3/hErbB2). Lentiviral-mediated transduction was utilized to generate MCF7 cells expressing human PRLR (MCF7/hPRLR), NCI-N87 cells expressing human PRLR (NCI-N87/hPRLR), T47D cells over-expressing human ErbB2 (T47D/hErbB2), and MCF7 cells expressing both human PRLR and human ErbB2 (MCF7/hPRLR/hErbB2). All lines were selected for at least two weeks in complete growth media plus appropriate selection reagents. Stably expressing populations were enriched for PRLR expression via FACS using the anti PRLR antibody Control I.
(§3) Next, the ability of anti-PRLR-DM1 antibody-drug conjugates (i.e., anti-PRLR antibodies conjugated to DM1 via a non-cleavable linker [SMCC]) to reduce cell viability was determined using in vitro cell based assays. Cells were seeded in PDL-coated 96 well plates at 1500 to 10000 cells per well in complete growth media and allowed to grow overnight. For cell viability curves, ADCs or free DM1 (as the methyl disulfide derivative DM1-SMe) were added to the cells at final concentrations ranging from 500 nM to 5 pM and incubated for 3 days. The 293, PC3 and T47D cells were incubated with CCK8 (Dojindo, Rockville, Md.) for the final 1-3 hours and the absorbance at 450 nm (OD450) was determined on a Flexstation3 (Molecular Devices, Sunnyvale, Calif.). MCF7 cells were treated with Hoechst 33342 nuclear stain while being fixed with 4% formaldehyde. Images were acquired on the ImageXpress micro XL (Molecular Devices, Sunnyvale, Calif.) and nuclear counts were determined via Columbus image analysis software (Perkin Elmer, Shelton, Conn.). Background OD450 values (PC3, 293, and T47D) or nuclear counts (MCF7) from digitonin (40 nM) treated cells was subtracted from all wells and viability was expressed as a percentage of the untreated controls. IC50 values were determined from a four-parameter logistic equation over a 10-point response curve (GraphPad Prism).

MCF7 (MCF7/ATCC) cells = experiment: Cell viability (cell kill) assay, nuclear counts; format: cell-based; conditions: MCF7
Outline: (§4)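 Anti-PRLR ADCs or free DM1-SMe were added at 500 nM to 5 pM final to cells seeded overnight and were incubated 3 days. MCF7 lines were fixed with 4% formaldehyde plus Hoechst 33342, and nuclei were counted by imaging, with digitonin […] background subtracted. Viability was expressed as % of untreated cells, and IC50 was obtained from a 4-parameter fit of a 10-point curve.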

PC3 cells = experiment: Cell viability (cell kill) assay; format: cell-based
Source text: as §2, §3
Finally, the potency of anti-PRLR antibodies conjugated to DM1 via the non-cleavable linker SMCC was compared to the cell killing potency of anti-PRLR antibodies conjugated to MMAE via the cleavable linker: mc-vc-PAB (available from Concortis, San Diego, Calif.). Cells used in this experiment were PC3, PC3/hPRLR, MCF7/ATCC and MCF7/PRLR.

HEK293 (293) cells = experiment: Cell viability (cell kill) assay; format: cell-based; conditions: 293
Outline: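 Anti-PRLR–DM1 ADCs (non-cleavable SMCC linker) or free DM1-SMe, 500 nM to 5 pM for 3 days on parental or hPRLR-overexpressing lines. HEK293: CCK8 OD450; MCF7: Hoechst nuclear counts by imaging.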

T47D cells = experiment: Cell viability (cell kill) assay; format: cell-based; conditions: T47D; for IC50: read-out: IC50
Outline: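 T47D cells grown overnight, then exposed 3 days to anti-PRLR ADCs (DM1 via non-cleavable SMCC linker, or other maytansinoid toxins) or free DM1-SMe, 500 nM to 5 pM. Viability by CCK8 OD450, digitonin background subtracted, as % of untreated; IC50 from 10-point four-parameter fit. PRL (15 nM) co-incubation tested separately.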

[2] = tested on: MCF7/hPRLR (MCF7/PRLR) cells; experiment: Cell viability (cell kill) assay, nuclear counts; format: cell-based, human
Outline: as §4

NCI-N87 cells = experiment: Cell viability (cell kill) assay; format: cell-based; conditions: Table 17
Source text: as §2, §3
The potency of anti-PRLR conjugated antibodies compared with a similarly conjugated antibody to the co-expressed ErbB2 cell surface target was also assessed. […]

HEK293/hErbB2 cells = experiment: Cell viability (cell kill) assay; format: cell-based, human; conditions: 293/ErbB2; Table 14
Source text: as §2, §3
(§5) The potency of anti-PRLR conjugated antibodies compared with a similarly conjugated antibody to the co-expressed ErbB2 cell surface target was also assessed. Both PRLR and ErbB2 are expressed in a majority of breast cancers, and anti-ErbB2 antibodies conjugated to DM1 have shown clinical efficacy in targeting ErbB2 (+) breast cancer (Hurvitz et al; 2013).

T47D/hErbB2 cells = experiment: Cell viability (cell kill) assay; format: cell-based, human; conditions: T47D/ErbB2; Table 16
Source text: as §2, §3, §5

MCF7/hPRLR/hErbB2 cells = experiment: Cell viability (cell kill) assay; format: cell-based, human; conditions: MCF/PRLR + ErbB2; Table 17
Source text: as §2, §3, §5

PC3/hErbB2 cells = experiment: Cell viability (cell kill) assay; format: cell-based, human; conditions: PC3/ErbB2; Table 15
Source text: as §2, §3, §5

NCI-N87/hPRLR cells = experiment: Cell viability (cell kill) assay; format: cell-based, human; conditions: NCI-N87/PRLR; Table 17
Source text: as §2, §3, §5

[3] = biological target: T1, IL-6R on KG-1, HEK293, HEK293/IL-4R and Ramos cells (Homo sapiens, UniProt P08887); experiment: FACS relative cell surface expression with anti-IL-6R antibody VV6A9-5; format: binding
T1 construct: KG-1 (IL-4R^+), HEK293/IL-4R and Ramos (IL-6R^+) cells; endogenous in cells; host or cells: Ramos (IL-6R+), KG-1, HEK293, HEK293/IL-4R
T1 sequence (P08887 20-468): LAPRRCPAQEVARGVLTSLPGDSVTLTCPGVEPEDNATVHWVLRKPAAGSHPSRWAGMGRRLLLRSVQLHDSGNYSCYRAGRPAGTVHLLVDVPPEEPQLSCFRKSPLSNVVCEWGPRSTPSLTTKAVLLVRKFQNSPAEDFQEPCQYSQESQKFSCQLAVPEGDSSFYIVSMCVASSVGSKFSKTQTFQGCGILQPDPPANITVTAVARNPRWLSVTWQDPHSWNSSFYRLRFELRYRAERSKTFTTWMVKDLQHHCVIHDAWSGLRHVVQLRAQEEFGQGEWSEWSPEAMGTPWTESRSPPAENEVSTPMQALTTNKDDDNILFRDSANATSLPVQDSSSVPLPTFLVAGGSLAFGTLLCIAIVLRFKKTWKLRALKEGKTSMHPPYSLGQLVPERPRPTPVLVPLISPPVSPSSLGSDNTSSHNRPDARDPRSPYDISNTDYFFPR
Protocol: Cell surface antigen levels on cells that endogenously or recombinantly express IL-4R or IL-6R were first established using FACS. Briefly, approximately 1 million KG-1 (IL-4R^+), HEK293/IL-4R and Ramos (IL-6R^+) cells were incubated with exemplary anti-IL-4R (H4H083P2, see U.S. Pat. No. 7,608,693) and anti-IL-6R (VV6A9-5, see U.S. Pat. No. 7,582,298) antibodies for 30 min on ice. After washing, a PE-conjugated anti-human secondary antibody (10 μg/ml) was added for 30 min followed by a second washing step and subsequent analysis on an Accuri C6 cytometer using FlowJo software (Tree Star, Inc., Ashland, Oreg.). Relative IL-4R and IL-6R cell surface expression levels were calculated as the mean fluorescence intensity (MFI) above isotype control levels.

Molecule: COc1cc2cc(c1Cl)N(C)C(=O)C[C@H](OC(=O)[C@H](C)N(C)C(=O)CCS)[C@]1(C)O[C@H]1[C@H](C)[C@@H]1C[C@@](O)(NC(=O)O1)[C@H](OC)/C=C/C=C(\C)C2 [DM1 (Free Drug)]
% Kill (KG-1 cells): 89%
IC50 (KG-1 cells): 1.26 nM
% Kill (Ramos cells): 100%
IC50 (Ramos cells): 0.34 nM
% Kill (HEK293/IL-4R cells): 98%
IC50 (HEK293/IL-4R cells): 0.33 nM
% Kill (HEK293 parental cells): 100%
IC50 (HEK293 parental cells): 0.27 nM

Molecule: COc1cc2cc(c1Cl)N(C)C(=O)C[C@H](OC(=O)[C@H](C)N(C)C(=O)CCS)[C@]1(C)O[C@H]1[C@H](C)[C@@H]1C[C@@](O)(NC(=O)O1)[C@H](OC)/C=C/C=C(\C)C2 [DM1 (free drug)]
% Kill (PC3/hPRLR cells; Table 11, 3 days): 80%
IC50 (PC3/hPRLR cells; Table 11, 3 days): 0.59 nM
% Kill (PC3/hPRLR cells; Table 15): 82%
IC50 (PC3/hPRLR cells; Table 15): 0.24 nM
% Kill (SK-BR-3 cells): 74%
IC50 (SK-BR-3 cells): 0.39 nM
% Kill ([1]; Table 11, 3 days): 97%
IC50 ([1]; Table 11, 3 days): 0.36 nM
% Kill ([1]; Table 14): 95%
IC50 ([1]; Table 14): 0.82 nM
% Kill (MCF7 (MCF7/ATCC) cells; Table 12, 3 days): 83%
IC50 (MCF7 (MCF7/ATCC) cells; Table 12, 3 days): 1.17 nM
% Kill (MCF7 (MCF7/ATCC) cells; Table 16): 78%
IC50 (MCF7 (MCF7/ATCC) cells; Table 16): 0.54 nM
% Kill (PC3 cells; Table 11, 3 days): 91%
IC50 (PC3 cells; Table 11, 3 days): 0.47 nM
% Kill (PC3 cells; Table 15): 88%
IC50 (PC3 cells; Table 15): 0.44 nM
% Kill (HEK293 (293) cells; Table 11, 3 days): 98%
IC50 (HEK293 (293) cells; Table 11, 3 days): 0.27 nM
% Kill (HEK293 (293) cells; Table 14): 95%
IC50 (HEK293 (293) cells; Table 14): 0.5 nM
% Kill (T47D cells; Table 12, 3 days): 86%
IC50 (T47D cells; Table 12, 3 days): 0.45 nM
% Kill (T47D cells; Table 16): 80%
IC50 (T47D cells; Table 16): 0.21 nM
% Kill ([2]; Table 12, 3 days): 88%
IC50 ([2]; Table 12, 3 days): 1.47 nM
% Kill ([2]; Table 17): 79%
IC50 ([2]; Table 17): 1.85 nM
% Kill (NCI-N87 cells): 95%
IC50 (NCI-N87 cells): 0.84 nM
% Kill (HEK293/hErbB2 cells): 100%
IC50 (HEK293/hErbB2 cells): 0.26 nM
% Kill (T47D/hErbB2 cells): 71%
IC50 (T47D/hErbB2 cells): 0.18 nM
% Kill (MCF7/hPRLR/hErbB2 cells): 77%
IC50 (MCF7/hPRLR/hErbB2 cells): 0.82 nM
% Kill (PC3/hErbB2 cells): 85%
IC50 (PC3/hErbB2 cells): 0.42 nM
% Kill (NCI-N87/hPRLR cells): 98%
IC50 (NCI-N87/hPRLR cells): 1.45 nM

IL-6R Cell Line Expression Level; Fold Over Background ([3]; HEK293): 1
IL-6R Cell Line Expression Level; Fold Over Background ([3]; HEK293/IL4R): 1
IL-6R Cell Line Expression Level; Fold Over Background ([3]; KG-1): 7
IL-6R Cell Line Expression Level; Fold Over Background ([3]; Ramos): 1
B1: VV6A9-5: exemplary anti-IL-6R antibody, see U.S. Pat. No. 7,582,298 (antibody, V domains shown)
VH: EVQLVESGGGLVQPGRSLRLSCAASGFTFDDYALHWVRQAPGKGLEWVSGVSWNGGRIGYADSVKGRFTISRDNAKNSLFLQMNSLRVEDTALYYCAKGRDAFDIWGQGTLVTVSS
VL: DIQMTQSPSSVSASVGDRVTITCRASQGISSWLAWYQQKPGKAPKLLIYAASSLQSGVPSRFSGSGSGTDFTLTISSLQPEDFATYYCQHAYSFPYTFGQGTKLEIK
